# Values quoted from earlier work in publication PMC7915902, “Preclinical Evaluation of [^18F]FACH in Healthy Mice and Piglets: An ^18F-Labeled Ligand for Imaging of Monocarboxylate Transporters with PET” (International Journal of Molecular Sciences, 2021).
# Design: method as in PMID 32357571
# Settings: from dosimetry studies in piglets; cited from earlier work
smiles,measurement,value
"CCCN(CCC[18F])c1ccc(/C=C(\C#N)C(=O)O)c(OC)c1 [[^18F]FACH, (E)-2-cyano-3-{4-[(3-[^18F]fluoropropyl)(propyl)amino]-2-methoxyphenyl}acrylic acid]",predicted effective radiation dose for humans,about 2 mSv/100 MBq
